{
  "source": "patent US6613317B1",
  "about": "“Volatile attractants for diabrotica species” (priority 1988, dated 2003)",
  "key": {"[1]": {"tested_on": "western corn rootworm (WCR) adults", "assay": "Sticky trap attraction in sweet corn plots (Example 1)", "assay_type": "in vivo, Diabrotica virgifera virgifera", "conditions": "August first year, single compounds 100 mg per trap", "procedure,_shortened": "(§1)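 Field trapping in sweet-corn plots beside a Blue Hubbard squash trap crop; lures on mineral-oil-impregnated cotton wicks atop sticky paper-carton traps on 1-m posts, 4 replicates in randomized complete blocks. Beetles counted after 24 h; VIPAE/VIP/TIC mixtures and single components at 1–300 mg per trap, ANOVA/Duncan at P=0.05.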"}, "[2]": {"tested_on": "southern corn rootworm (SCR) adults", "assay": "Sticky trap attraction in sweet corn plots (Example 1)", "assay_type": "in vivo, Diabrotica undecimpunctata howardi", "conditions": "August first year, single compounds 100 mg per trap", "procedure,_shortened": "as §1"}, "[3]": {"tested_on": "D. u. howardi adults", "assay_type": "in vivo, Diabrotica undecimpunctata howardi", "conditions": "1% incorporated into TEX×PEP bait, petri-dish tests", "text": "A noncucurbit carrier, 10-mesh corn grits (71% of which passed through a 2-mm screen), was obtained from Illinois Cereal Mills, Paris, Ill. (designated as pesticide carrier grits, 980). This carrier was impregnated with different levels of cucurbitacins by addition of varying amounts of a chloroform extract of AND×MAX fruit containing 0.12% cucurbitacins B and D (Metcalf, et al., Proc. Natl. Acad. Sci. USA, 77:3769-3772 (1980), Metcalf, et al., Environ. Entomol., 11:921-927 (1982)). The cucurbitacin-containing areas were scraped from plates, extracted in anhydrous methanol, centrifuged, and the UV absorption at 210 nm determined by UV spectrophotometry. Content of cucurbitacins was quantified from standard curves of pure cucurbitacins B, D, E and I, and E-glycoside (Metcalf, et al., Proc. Natl. Acad. Sci. USA, 77:3769-3772 (1980), Metcalf, et al., Environ. Entomol., 11:921-927 (1982)).\nThe various dried, ground, and insecticide-treated baits were given preliminary field evaluation by placing uniform amounts in petri-dish halves (150-mm diameter) that were placed at random on the ground in cucurbit and corn rows heavily infested ith SCR, WCR, and SCB adults. Ten dishes were used for each treatment; the maximum dosage of dried baits used was 300 mg per dish, equivalent to […]. Mortality counts of adult beetles in the dishes were made after 20-40 h."}, "[4]": {"tested_on": "NCR", "assay": "Limit of response rating of squash blossom volatiles on sticky traps (Example 5)", "assay_type": "in vivo, Diabrotica barberi", "conditions": "24 hour; four replicate traps; 0.01 mg to 200 mg", "procedure,_shortened": "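Adult Diabrotica beetles were tested against cylindrical sticky traps baited with cotton wicks holding 0.01 mg to 200 mg of individual Cucurbita maxima blossom volatiles. Response limit rated by trap catch.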"}, "[5]": {"conditions": "South Farms, 24 h, mixture 20 mg of each component, n = 4"}},
  "data": [
    {"smiles": "C=CCc1ccc(O)c(OC)c1", "note": "[XXIV, eugenol]", "values": [
      {"measurement": "Mean number of WCR per trap (±standard deviation)", "setting": "[1]; [5]", "value": "2.8 ± 1.0", "unit": "per trap"},
      {"measurement": "relative percent activity of the mean WCR trap catch as compared with the highest mean value in the column", "setting": "[1]; mixture 20 mg each component", "value": 41, "unit": "%"},
      {"measurement": "Mean number of SCR per trap (±standard deviation)", "setting": "[2]; [5]", "value": "2.8 ± 2.8", "unit": "per trap"},
      {"measurement": "relative percent activity of the mean SCR trap catch as compared with the highest mean value in the column", "setting": "[2]; mixture 20 mg each component", "value": 13, "unit": "%"},
      {"measurement": "increase in the kill of SCR beetles", "setting": "[3]", "value": 4, "unit": "fold"}
    ]},
    {"smiles": "OCC=Cc1ccccc1", "note": "[XVIII, cinnamyl alcohol]", "values": [
      {"measurement": "Attractant Rating NCR (by limit of response)", "setting": "[4]", "value": "+3 (3-10)"}
    ]}
  ]
}
